# Reference: patent publication US20250092369A1, “METHOD FOR IMPROVING TRANSCYTOSIS PROPERTIES OF HUMAN BLOOD-BRAIN BARRIER MODEL” (Wisconsin Alumni Research Foundation, priority 2023, published 2025)
# Columns and labels:
# [1] = system: gene-edited PB-TRE-N1ICD hPSC-EPCs; experiment: Fluorescent albumin accumulation assay in gene-edited PB-TRE-N1ICD hPSC-EPCs; format: cell-based, human; conditions: PBS-treated 10(+CR2) cells, 30 min pretreatment: 3 mM MβCD, 20 µM CPZ or 2 μM rottlerin
# Protocol: Fixable, Alexa Fluor 647-conjugated bovine serum albumin (BSA) (Invitrogen) was used as a substrate to estimate total fluid-phase endocytosis. […] Similarly, D6 cultures of HUVECs treated with GFP or N1ICD LV were pre-treated with or without 3 mM MβCD for 30 min at 37° C. Cells were washed once with sterile DPBS and then incubated in hECSR (for hPSC-EPCs) supplemented with 5 μg/mL BSA or 1:1000 diluted DPBS, 1:100 diluted CD144-FITC or FITC isotype control antibody, and 4 μM Hoechst 33342 (Life Technologies) or EGM-2 media (for HUVECs) supplemented with 5 μg/mL BSA or 1:1000 diluted DPBS and 4 μM Hoechst 33342 at 4° C. or 37° C. for 2 h on a rotating platform at 30 rpm, protected from light. Cells were then washed 3 times with 4° C. sterile DPBS to stop the assay and wash away any extracellular BSA. Internalization of fluorescent BSA was visualized using an Eclipse Ti2-E epifluorescence microscope (Nikon, Tokyo, Japan) with a 20× objective.
# Flow cytometry was used to quantify accumulated BSA fluorescence within cells. […] FITC emission was detected with a 530/30 filter and AlexaFluor 647 emission was detected with a 670/14 filter. Data were analyzed with Flow Jo software.
# [2] = system: gene-edited PB-TRE-N1ICD 10(+CR2) hPSC-EPCs; experiment: Bulk RNA-sequencing of FACS-sorted gene-edited 10(+CR2) hPSC-EPC subpopulations; format: cell-based, human
# Protocol: Ten PBS or doxycycline-treated gene-edited PB-TRE-N1ICD hPSC-derived endothelial cell subpopulations obtained via FACS were centrifuged at 200×g for 5 min. Pellets were resuspended TRIzol reagent (Invitrogen) for extraction of total RNA. RNA concentrations were quantified using the Qubit 4 Fluorometer (Invitrogen) and Qubit RNA High Sensitivity Assay Kit (Invitrogen). Purified RNA samples (≥200 ng) were sent to Novogene Corporation (Sacramento, CA) for library preparation and mRNA sequencing, with approximately 40-60 million paired end reads obtained per sample. FASTQ files were uploaded to the Galaxy^43 web platform and processed to generate a raw counts matrix using the publicly available bioinformatics server at usegalaxy.org. We ran FastQC to ensure high Phred quality scores and low percentages (<5%) adapter content (Galaxy). Illumina Universal Adapter sequences were trimmed from raw sequencing reads using Cutadapt (Galaxy). Data were aligned to the hg38 genome model using RNA STAR and raw reads per gene were determined using featureCounts. Differential expression analysis was performed in R using DESeq2^44. Heatmaps containing TPM values were generated using the pheatmap package in R. Comparison of the transcriptomic profile of […] overexpressing EPCs±Dox subpopulations to transcriptomes of established cell and tissue types was performed with […]^45.
# [3] = system: gene-edited PB-TRE-N1ICD 10(+CR2) hPSC-EPCs; experiment: FACS of CD144 (VE-cadherin) subpopulations in gene-edited 10(+CR2) hPSC-EPCs; format: cell-based, human; conditions: doxycycline-treated population, D15
# Protocol: Gene-edited PB-TRE-N1ICD hPSC-EPCs were cultured in a 6-well plate with or without doxycycline as described above (n=3* replicates for doxycycline supplemented condition, n=4 replicates for PBS supplemented condition). On D15, cells were isolated with Accutase (incubated 15 mins at 37° C., 1 mL/well), triturated, and quenched through a 40 μm cell strainer into 4× the volume of DMEM (Life Technologies) supplemented with 10% FBS (R&D Systems). An additional well of gene-edited EPCs cultured with PBS was reserved as an isotype control. Unedited hPSCs maintained in E8 medium and unedited hPSC-EPCs cultured for 6 days in hECSR supplemented with 4 μM CHIR were used as an additional negative and positive control, respectively, for FACS. Cell count was quantified using a hemocytometer and cells were centrifuged at 200×g for 5 min. Cells were resuspended in MACS buffer at a concentration of 100 μL/10^6 cells. Cells suspensions were supplemented with CD144-APC or APC-conjugated isotype control antibodies (Table 2) at a 1:50 dilution for at 4° C. for 20 min, protected from light. Cells were washed with 2 mL MACS buffer and centrifuged at 200×g for 5 min. Pellets were resuspended in 400 μL each of MACS buffer supplemented with 1 μg/mL DAPI (Invitrogen) and incubated at 4° C., protected from light.
# Cells were sorted using the BD FACSAria III Cell Sorter (BD Biosciences). Gates for high or low CD144-expressing cells were determined based on two negative controls (gene-edited PB-TRE-N1ICD hPSC-derived ECs stained with APC isotype control antibody or unedited hPSCs stained with CD144-APC antibody, both negative for CD144) and one positive control (unedited hPSC-EPCs cultured with CHIR, CD144 high). After establishing gates, live gene-edited PB-TRE-N1ICD hPSC-ECs treated with or without doxycycline were sorted into tubes containing 500 μL MACS buffer and stored at 4° C.
# [4] = system: heterogeneous gene-edited hPSC-EPCs; experiment: CD31 flow cytometry in heterogeneous gene-edited hPSC-EPCs, hygromycin/doxycycline timing; format: cell-based, human; conditions: 6 days of hygromycin reselection followed by 4 days of doxycycline treatment
# Protocol: To determine CD31 expression in edited hPSC-EPCs treated with doxycycline vs. DPBS (FIG. 15A,B), hPSC-ECs were isolated at day 13, 15, or 17, dissociated with Accutase as previously stated, quenched in DMEM supplemented with 10% FBS through a cell strainer, centrifuged, and resuspended in MACS buffer (100 μL/10^6 cells) supplemented with CD31-APC or APC isotype control antibodies at a 1:50 dilution. Cells were incubated at 4° C. for 20 min, protected from light. Cells were washed with 2 mL MACS buffer and centrifuged at 200×g for 5 min. Pellets were resuspended in 500 μL each of 4% PFA in DPBS and incubated 15 min at room temperature, protected from light. Cells were centrifuged at 200×g for 5 min and pellets were resuspended in 400 μL MACS buffer. Samples were run on an Attune NxT V6 flow cytometer with excitation at 633 nm. APC emission was detected with a 670/14 filter. Data were analyzed with Flow Jo software.
# [5] = system: gene-edited PB-TRE-N1ICD hPSC-EPCs; experiment: RT-qPCR of BBB-related genes in gene-edited PB-TRE-N1ICD hPSC-EPCs + CHIR ± doxycycline; format: cell-based, human
# Protocol: Gene-edited hPSC-derived EPCs (D5) with high post-MACS purity validated by flow cytometry were cultured on collagen IV-coated plates at approximately 4×10^4 cells/cm^2 in hECSR medium supplemented with various antibiotics, with media changes every other day. […] […] On D15, cells were collected for RT-qPCR quantification of differential gene expression between doxycycline and DPBS-treated gene-edited hPSC-EPCs.
# RNA extraction was performed using the Direct-zol RNA Miniprep Kit (Zymo Research). Cells were lysed with 300-600 μL TRIzol reagent (Invitrogen, Waltham, MA) depending on the estimated cell count per sample. Cell lysates were combined with an equal volume of 100% ethanol and transferred to Zymo-Spin IICR spin columns. Columns were incubated with Rnase-free DNase I (Qiagen) to eliminate residual gDNA. Columns were washed with RNA Wash Buffer and Direct-zol RNA Pre-Wash according to Zymo RNA Miniprep Kit protocols. RNA was eluted with RNase-free water and concentration was determined using a NanoDrop 2000 spectrophotometer (Thermo Scientific). 250-1000 ng of RNA was reverse transcribed for 1 h at 37° C. using the OmniScript RT Kit (Qiagen). 1 U/μL RNaseOUT (Life Technologies) was included in the reverse-transcription reactions. Reaction products were diluted to 10 ng/μL. 20 μL qPCR reactions were carried out with 10 ng cDNA and 500 nM each forward and reverse primers (Integrated DNA Technologies, Coralville, IA [Table 1]) using PowerUp SYBR Green Master Mix (Life Technologies) or 1×Taqman Gene Expression Assay probes (Thermo Scientific [Table 1]) using Taqman Fast Advanced Master Mix (Thermo Scientific). Reactions were run on an AriaMx Real-Time PCR System (Agilent Technologies, Santa Clara, CA) using the thermal cycling program corresponding to either IDT primers or Taqman probes. An annealing temperature of 60° C. was used for all reactions.
# [6] = system: gene-edited PB-TRE-N1ICD 10(+CR2) hPSC-EPCs; experiment: Transendothelial electrical resistance (TEER); format: cell-based, human; conditions: Dox-treated edited hPSC-EPCs at end of culture (D15), doxycycline D11-D15
# hPSC-EPCs = conditions: CHIR supplemented in hPSC-EPCs culture medium; cited from earlier work
# [7] = clone 10(+CR2), 6d H+4d D, 1 μg/mL doxycycline vs PBS, D15
# [8] = clone 10(+CR2), 6d P+4d D vs PBS control
structure (smiles),measurement,setting,value
CC(=O)c1c(O)c(C)c(O)c(Cc2c(O)c3c(c(C(=O)/C=C/c4ccccc4)c2O)OC(C)(C)C=C3)c1O [rottlerin],fluorescent albumin accumulation after endocytosis inhibitor pretreatment,[1],but not with rottlerin
"C[C@H]1c2cccc(O)c2C(=O)C2=C(O)[C@]3(O)C(=O)C(C(N)=O)=C(O)[C@@H](N(C)C)[C@@H]3[C@@H](O)[C@@H]21 [doxycycline, doxycycline hyclate]",increase in NOTCH1 expression (TPM),[2]; Dox CD144 hi vs PBS CD144 hi,~2 fold
same,increase in NOTCH1 expression (TPM),[2]; Dox CD144 lo vs PBS CD144 hi,~7 fold
same,cells with high CD144 expression,[3],~25%
same,cells with low but not absent CD144 expression,[3],~65%
same,CD144+ cells,[3]; live cells,~90%
same,percentage of CD31+ cells,[4],~90%
same,decrease in CDH5 expression,"[5]; clone 3(+Y) hPSC-EPCs, highest doxycycline dose, D11-D15",~2 fold
same,downregulation of TJP1,"[5]; clone 10(+CR2), 2d P+4d D+4P vs PBS control",~2 fold
same,upregulation in MFSD2A,"[5]; clone 10(+CR2), 6d H+4d D and 6d P+4d D vs PBS control (6d H+4d P), D15",60- to 100 fold
same,decrease in expression of CDH5,[5]; [7],~3 fold
same,increase in MFSD2A expression,[5]; [7],~50 fold
same,increase in SLC2A1 expression,[5]; [7],> 20 fold
same,increase in expression of ABCB1,[5]; [7],~2 fold
same,increase in expression of ABCC1,[5]; [7],~2 fold
same,increase in expression of ABCG2,[5]; [7],~2 fold
same,upregulation in N1ICD expression,[5]; [7],~8 fold
same,increase in CDH2,"[5]; clone 10(+CR2), 6d P+4d D and 2d P+4d D+4P vs PBS control",~2 fold
same,increase in ABCC1,[5]; [8],7 fold
same,increase in ABCG2,[5]; [8],4 fold
same,increase in FN1,[5]; [8],~12 fold
same,upregulation of CLDN5,[5]; [8],~2 fold
same,reduction in CDH5,"[5]; clone 10(+CR2), 6d P+4d D vs PBS control, significant",~2 fold
same,reduction in CDH5,"[5]; clone 10(+CR2), other doxycycline-treated conditions vs PBS control, non-significant",~1.7 fold
same,average TEER,[6],less than 10 Ω·cm^2
"Cc1c[nH]c(-c2cnc(NCCNc3ccc(C#N)cn3)nc2-c2ccc(Cl)cc2Cl)n1 [CHIR, CHIR99021]",increase in normalized SLC2A1 expression (TPM),hPSC-EPCs,~750 fold
